Source: patent US20240180883A1, “TREATMENT OF MIGRAINE” (Allergan Pharmaceuticals International Limited, priority 2020, published 2024)
Where “and” joins values, the source holds several entries; their conditions need not be identical. Equal values may be shown once. Entries after “also recorded” stand apart in the source; their conditions may differ. Read-outs that look alike come from different tables or passages of the source.

Key:
plasma protein = assay: Plasma protein binding by equilibrium dialysis (hepatic impairment study); assay type: in vitro ADME, human
Protocol: Sampling was also done at the following times for plasma protein binding determinations: Day 1 at 0 hour (predose) and 2 hours post dose.
Protein binding blood samples were collected from all participants starting on Day 1 at 0 hour (predose) and at 2 hours post-dose. The pre-dose samples collected prior to dosing for each participants were spiked with known quantities of ubrogepant.

[1] = Study A: drug interaction PK with verapamil or ketoconazole; assay type: in vivo, human; details: for AUC(0-inf) / half-life / Cmax / Tmax: human, plasma, oral
Excerpt: Study A (verapamil and ketoconazole) comprised 3 treatment periods.
Healthy adults aged 19-50 years for Study A and 18-45 years for Study B were eligible to participate. […] For study B, participants had to have a BMI between 18.0 and 30 kg/m^2. Exclusion criteria for both studies included hypersensitivity to any study drug; exposure to hepatitis B virus, hepatitis C virus, or HIV; or use of any drug or substance known to affect CYP enzymes or P-gp.

[2] = Phase 1 food effect study, 100 mg tablet fed vs fasted; assay type: in vivo, human; details: for AUC(0-inf) / AUC(0-t) / Cmax / Tmax / Vd/F / half-life: both sexes, human, plasma, oral, 100 mg; for Vd/F: read-out: Vz/F, arithmetic mean (CV %); for half-life: read-out: t1/2, mean (CV %) (converted)
Protocol: The treatments were administered in 1 of 2 sequences in periods 1 and 2 with a washout period of at least 7 days between each treatment.
Eighteen healthy participants with a mean age of 28.4 years (range: 20 to 39 years) were enrolled. The majority of participants were male (14 of 18, 77.8%). […] Mean (SD) weight was 75.99 ([…]) kg and mean (SD) BMI was 25.03 (3.290) kg/m2. Participants were randomly assigned one of two treatments in 1 of 2 sequences in Periods 1 and 2, with a washout period of at least 7 days between each study treatment.
For fed participants, the standardized high-fat (approximately 50% of total caloric content of the meal) and high-calorie (total of approximately 800 to 1000 calories) breakfast derived approximately 150 calories from protein, 250 calories from carbohydrates, and 500 to 600 calories from fat. An example of a high-fat breakfast meal would be 2 eggs fried in butter, 2 strips of bacon, 2 slices of toast with butter, 4 ounces of hash brown potatoes, and 8 ounces of whole milk. […] Participants who were randomly assigned to receive ubrogepant under fed conditions were required to consume the high-fat, high-calorie breakfast in full. For all participants, no food was allowed for 4 hours following study treatment administration. Water was allowed as desired except for 1 hour before and 1 hour after study treatment administration.

[3] = Total: participants who took any investigational product
[4] = Total: participants who took any investigative product
[5] = Treatment A: ubrogepant 100 mg single dose, fasted
[6] = Treatment C: 600 mg rifampin co-administered with 100 mg ubrogepant on Day 14

## C[C@@H]1[C@H](c2ccccc2)C[C@H](NC(=O)c2cnc3c(c2)C[C@@]2(C3)C(=O)Nc3ncccc32)C(=O)N1CC(F)(F)F [ubrogepant, (3′S)-N-((3S,5S,6R)-6-methyl-2-oxo-5-phenyl-1-(2,2,2-trifluoroethyl)piperidin-3-yl)-2′-oxo-1′,2′,5,7-etrahydrospiro[cyclopenta[b]pyridine-6,3′-pyrrolo[2,3-b]pyridine]-3-carboxamide]
Plasma protein; 0 hr (predose sample spiked with ubrogepant), mild-impaired
  percentage of protein-bound ubrogepant: 88.87 ± 1.12%
Plasma protein; 0 hr (predose sample spiked with ubrogepant), moderate-impaired
  percentage of protein-bound ubrogepant: 87.42 ± 1.89%
Plasma protein; 0 hr (predose sample spiked with ubrogepant), normal hepatic function
  percentage of protein-bound ubrogepant: 88.52 ± 0.84%
Plasma protein; 0 hr (predose sample spiked with ubrogepant), severe-impaired
  percentage of protein-bound ubrogepant: 84.58 ± 0.91%
Plasma protein; 2 hr post-dose, 100 mg, mild-impaired
  percentage of protein-bound ubrogepant: 89.9% and 89.85 ± 1.33%
Plasma protein; 2 hr post-dose, 100 mg, moderate-impaired
  percentage of protein-bound ubrogepant: 88.2% and 88.24 ± 1.02%
Plasma protein; 2 hr post-dose, 100 mg, normal hepatic function
  percentage of protein-bound ubrogepant: 89.3% and 89.28 ± 1.54%
Plasma protein; 2 hr post-dose, 100 mg, severe-impaired
  percentage of protein-bound ubrogepant: 85.3% and 85.27 ± 0.94%
[1]; coadministered with verapamil 240 mg vs alone
  increase in ubrogepant Cmax: ~2.8 fold
[1]; 20 mg, ubrogepant 20 mg alone (Table 9), read-out: AUC0-∞, AM
  AUC(0-inf): 213 ng·h/mL
[1]; 20 mg, ubrogepant 20 mg alone, read-out: AUC0-∞, mean (SD)
  AUC(0-inf): 213 ng·h/mL
[1]; 20 mg, ubrogepant 20 mg alone, read-out: Apparent terminal t1/2, mean (SD) (converted)
  half-life: 2.5 h
[1]; 20 mg, ubrogepant 20 mg alone, read-out: Cmax, mean (SD)
  Cmax: 45.2 ng/mL
[1]; 20 mg, ubrogepant 20 mg alone, read-out: Tmax, median (range)
  Tmax: 2 h
[1]; ubrogepant 20 mg + ketoconazole 400 mg, read-out: AUC0-∞, mean (SD)
  AUC(0-inf): 2070 ng·h/mL
[1]; ubrogepant 20 mg + ketoconazole 400 mg, read-out: Apparent terminal t1/2, mean (SD) (converted)
  half-life: 5.9 h
[1]; ubrogepant 20 mg + ketoconazole 400 mg, read-out: Cmax, mean (SD)
  Cmax: 240 ng/mL
[1]; ubrogepant 20 mg + ketoconazole 400 mg, read-out: Tmax, median (range)
  Tmax: 2.5 h
[1]; ubrogepant 20 mg with verapamil 240 mg, read-out: AUC0-∞, AM
  AUC(0-inf): 742 ng·h/mL
[1]; ubrogepant 20 mg with verapamil 240 mg, read-out: Apparent terminal t1/2, AM (converted)
  half-life: 4.29 h
[1]; ubrogepant 20 mg with verapamil 240 mg, read-out: Cmax, AM
  Cmax: 125 ng/mL
[1]; ubrogepant 20 mg with verapamil 240 mg, read-out: Tmax
  Tmax: 2 h
[1]; ubrogepant 20 mg + ketoconazole 400 mg
  Apparent terminal t1/2, mean (SD): 6.00 (1.27) h
[1]; ubrogepant 20 mg alone
  Apparent terminal t1/2, mean (SD): 2.52 (0.56) h and 2.52 h
[1]; with ketoconazole, a strong CYP3A4 inhibitor
  exposure of ubrogepant on co-administration: significant increase in exposure
[1]; with verapamil, a moderate CYP3A4 inhibitor
  exposure of ubrogepant on co-administration: increase in ubrogepant exposure
[2]; 1 × 100 mg tablet
  effect of a high fat meal on extent of exposure (AUC0-t and AUC0-inf): did not affect the extent of exposure
[2]; 1 × 100 mg tablet, fasted
  CL/F, arithmetic mean (CV %): 77.29 (29.9) L/h
  Tmax, median (minimum − maximum): 1.00 (1.00-3.00) h
  t1/2, mean (CV %): 4.99 (23.0) h
  Vd/F: 536 L
  half-life: ~5 h
[2]; 1 × 100 mg tablet, fed
  CL/F, arithmetic mean (CV %): 76.55 (24.1) L/h
  Tmax, median (minimum − maximum): 3.00 (0.50-4.00) h
  t1/2, mean (CV %): 4.64 (11.1) h
  Vd/F: 507 L
  half-life: ~5 h
[2]; 1 × 100 mg tablet, high fat meal
  maximum exposure (Cmax) lower under fed versus fasted conditions: approximately 22%
[2]; 1 × 100 mg tablet, fasted, read-out: AUC0-inf, geometric mean (geometric CV %)
  AUC(0-inf): 1360 ng·h/mL
[2]; 1 × 100 mg tablet, fasted, read-out: AUC0-t, geometric mean (geometric CV %)
  AUC(0-t): 1330 ng·h/mL
[2]; 1 × 100 mg tablet, fasted, read-out: Cmax, geometric mean (geometric CV %)
  Cmax: 334 ng/mL
[2]; 1 × 100 mg tablet, fasted, read-out: GLSM AUC0-inf
  AUC(0-inf): 1370 ng·h/mL
[2]; 1 × 100 mg tablet, fasted, read-out: GLSM AUC0-t
  AUC(0-t): 1340 ng·h/mL
[2]; 1 × 100 mg tablet, fasted, read-out: GLSM Cmax
  Cmax: 336 ng/mL
[2]; 1 × 100 mg tablet, fasted, read-out: Tmax, median (minimum − maximum)
  Tmax: 1 h
[2]; 1 × 100 mg tablet, fed, read-out: AUC0-inf, geometric mean (geometric CV %)
  AUC(0-inf): 1340 ng·h/mL
[2]; 1 × 100 mg tablet, fed, read-out: AUC0-t, geometric mean (geometric CV %)
  AUC(0-t): 1320 ng·h/mL
[2]; 1 × 100 mg tablet, fed, read-out: Cmax, geometric mean (geometric CV %)
  Cmax: 262 ng/mL
[2]; 1 × 100 mg tablet, fed, read-out: GLSM AUC0-inf
  AUC(0-inf): 1350 ng·h/mL
[2]; 1 × 100 mg tablet, fed, read-out: GLSM AUC0-t
  AUC(0-t): 1330 ng·h/mL
[2]; 1 × 100 mg tablet, fed, read-out: GLSM Cmax
  Cmax: 263 ng/mL
[2]; 1 × 100 mg tablet, fed, read-out: Tmax, median (minimum − maximum)
  Tmax: 3 h
[2]; 1 × 100 mg tablet, read-out: Tmax median difference (fed−fasted)
  Tmax: 2 h
[2]; fed vs fasted
  GMR AUC0-inf: 98.89%
  GMR AUC0-t: 98.88%
  GMR Cmax: 78.39%
Study B: adverse events; Study B, whole trial
  participants with headache: 13.3%
Study B: adverse events; [3]
  Any AE: 6 (20.0) n (%)
  Dry Mouth: 1 (3.3) n (%)
  Flatulence: 1 (3.3) n (%)
  Gastrointestinal Disorders: 4 (13.3) n (%)
  Headache: 4 (13.3) n (%)
  Nausea: 2 (6.7) n (%)
  Nervous System Disorders: 4 (13.3) n (%)
Study B: adverse events; [4]
  AEs leading to discontinuation: 0 n (%)
  Deaths: 0 n (%)
  SAEs: 0 n (%)
  TEAEs: 6 (20.0) n (%)
  Treatment related TEAEs: 6 (20.0) n (%)
Study B: adverse events; [5]
  AEs leading to discontinuation: 0 n (%)
  Any AE: 4 (13.3) n (%)
  Deaths: 0 n (%)
  Dry Mouth: 1 (3.3) n (%)
  Flatulence: 1 (3.3) n (%)
  Gastrointestinal Disorders: 2 (6.7) n (%)
  Headache: 2 (6.7) n (%)
  Nausea: 0 n (%)
  Nervous System Disorders: 2 (6.7) n (%)
  SAEs: 0 n (%)
  TEAEs: 4 (13.3) n (%)
  Treatment related TEAEs: 4 (13.3) n (%)
Study B: adverse events; [6]
  AEs leading to discontinuation: 0 n (%)
  Any AE: 2 (7.1) n (%)
  Deaths: 0 n (%)
  Dry Mouth: 0 n (%)
  Flatulence: 0 n (%)
  Gastrointestinal Disorders: 2 (7.1) n (%)
  Headache: 1 (3.6) n (%)
  Nausea: 2 (7.1) n (%)
  Nervous System Disorders: 1 (3.6) n (%)
  SAEs: 0 n (%)
  TEAEs: 2 (7.1) n (%)
  Treatment related TEAEs: 2 (7.1) n (%)
Study B: adverse events; single oral dose coadministered with multiple doses of rifampin
  safety and tolerability: safe and generally well tolerated; also recorded: safe and generally well-tolerated
